# From US9308176B2, “Less abusable pharmaceutical preparations” (Supernus Pharmaceuticals, Inc, priority 2004, dated 2016)
# Assay: aqueous solubility at different pH
# From the text: Moreover, alkaline agents, such as sodium bicarbonate, calcium carbonate, meglumine, and calcium phosphate, can be used to convert salt forms of amine drugs to free base. Generally, free bases have much lower solubility than their salts.
compound,measurement,setting,value
COc1ccc2c3c1O[C@H]1C(=O)CC[C@@]4(O)[C@@H](C2)N(C)CC[C@]314.Cl [oxycodone hydrochloride],solubility,"pH 1.5, simulated gastric fluid",182 mg/mL
same,solubility,"pH 7.4, aqueous buffer",6.1 mg/mL
